Results as given in ChEMBL document CHEMBL4765323, “Design, synthesis, and biological evaluation of novel miconazole analogues containing selenium as potent antifungal agents” (Eur J Med Chem, 2020).
In brackets after ≈: the same amount, converted by molar mass.

What was measured:
Candida albicans [1] = assay: Fungicidal activity against Candida albicans CPCC400616 measured after 48 hrs; format: functional
Nakaseomyces glabratus = assay: Antifungal activity against clinical isolate Candida glabrata measured after 24 hrs by micro-broth dilution assay; format: functional
Candida albicans [2] = assay: Antifungal activity against Candida albicans 901 measured after 24 hrs by micro-broth dilution assay; format: functional
Candida albicans [3] = assay: Antifungal activity against Candida albicans ATCC SC5314 measured after 24 hrs by micro-broth dilution assay; format: functional
Cryptococcus neoformans = assay: Antifungal activity against Cryptococcus neoformans CGMCC2.3161 measured after 72 hrs by micro-broth dilution assay; format: functional
[Candida] zeylanoides = Antifungal activity against Candida zeylanoides CMGCC2.3739 measured after 24 hrs by micro-broth dilution assay; format: functional; conditions: Dujonia zeylanoides
Candida albicans [4] = assay: Antifungal activity against fluconazole-resistant Candida albicans strain 904 measured after 24 hrs by micro-broth dilution assay; format: functional
[5] = Ratio of MFC for fungicidal activity against Candida albicans CPCC400616 to MIC for Antifungal activity against Candida albicans CPCC400616; format: functional; conditions: time 24 hrs
Candida albicans [6] = assay: Antifungal activity against Candida albicans CPCC400616 measured after 24 hrs by micro-broth dilution assay; format: functional
Candida parapsilosis = assay: Antifungal activity against Candida parapsilosis ATCC 22019 measured after 24 hrs by micro-broth dilution assay; format: functional; conditions: Lodderomyces parapsilosis
Candida albicans [7] = assay: Antifungal activity against fluconazole-resistant Candida albicans 632 measured after 24 hrs by micro-broth dilution assay; format: functional
Pichia kudriavzevii = assay: Antifungal activity against Candida krusei AS 2.1045 measured after 24 hrs by micro-broth dilution assay; format: functional
Candida albicans [8] = assay: Antifungal activity against fluconazole-resistant Candida albicans CaR measured after 24 hrs by micro-broth dilution assay; format: functional
Aspergillus fumigatus = assay: Antifungal activity against Aspergillus fumigatus CGMCC 3.7795 measured after 72 hrs by micro-broth dilution assay; format: functional
Candida albicans [9] = assay: Antifungal activity against fluconazole-resistant Candida albicans 17 measured after 24 hrs by micro-broth dilution assay; format: functional
[10] = Ratio of hemolysis activity in rabbit RBC to MIC for Candida albicans; format: toxicity; conditions: rabbit red blood cells (RBC)

| SMILES | MIC (Candida albicans [1]) | MIC (Nakaseomyces glabratus) | MIC (Candida albicans [2]) | MIC (Candida albicans [3]) | MIC (Cryptococcus neoformans) | MIC ([Candida] zeylanoides) | MIC (Candida albicans [4]) | MFC/MIC ratio [5] | MIC (Candida albicans [6]) | MIC (Candida parapsilosis) | MIC (Candida albicans [7]) | MIC (Pichia kudriavzevii) | MIC (Candida albicans [8]) | MIC (Aspergillus fumigatus) | MIC (Candida albicans [9]) | selectivity ratio [10] |
| --- | --- | --- | --- | --- | --- | --- | --- | --- | --- | --- | --- | --- | --- | --- | --- | --- |
| Clc1ccc(C(Cn2ccnc2)[Se]Cc2ccccc2Br)c(Cl)c1 (stereo unspecified) | 0.25 µg/mL (≈ 0.511 µM) | 0.5 µg/mL (≈ 1.02 µM) | 1 µg/mL (≈ 2.04 µM) | 0.01 µg/mL (≈ 0.0204 µM) | 0.5 µg/mL (≈ 1.02 µM) | 0.25 µg/mL (≈ 0.511 µM) | 0.25 µg/mL (≈ 0.511 µM) | 16 | 0.02 µg/mL (≈ 0.0409 µM) | 0.03 µg/mL (≈ 0.0613 µM) | 1 µg/mL (≈ 2.04 µM) | 0.25 µg/mL (≈ 0.511 µM) | 0.5 µg/mL (≈ 1.02 µM) | 1 µg/mL (≈ 2.04 µM) | 0.5 µg/mL (≈ 1.02 µM) |  |
| Fc1ccc(C(Cn2ccnc2)[Se]Cc2ccccc2Br)c(F)c1 (stereo unspecified) | 0.125 µg/mL (≈ 0.274 µM) | 1 µg/mL (≈ 2.19 µM) | 0.25 µg/mL (≈ 0.548 µM) | 0.01 µg/mL (≈ 0.0219 µM) | 0.25 µg/mL (≈ 0.548 µM) | 0.25 µg/mL (≈ 0.548 µM) | 0.06 µg/mL (≈ 0.132 µM) | 8 | 0.02 µg/mL (≈ 0.0438 µM) | 0.02 µg/mL (≈ 0.0438 µM) | 0.25 µg/mL (≈ 0.548 µM) | 0.06 µg/mL (≈ 0.132 µM) | 0.13 µg/mL (≈ 0.285 µM) | 1 µg/mL (≈ 2.19 µM) | 0.06 µg/mL (≈ 0.132 µM) | 512 |
